Results published in patent US20100016319A1, “ARYLMETHYLENE UREA DERIVATIVE AND USE THEREOF” (TORAY INDUSTRIES, INC. a corporation of Japan, priority 2005, published 2010).
pIC50: −log10 of the molar value.

Key:
[1] = system: DSS-induced colitis; assay: Dextran sulfate sodium (DSS)-induced colitis model of mice, rectal bleeding score; type: in vivo, BALB/c mice; details: 30 mg/kg orally every day from Day 27 to Day 31; for amelioration of symptoms / improvement in the rectal bleeding score (in words): Day 32; for rectal bleeding score on Day 32 (0: occult blood-negative, 2: occult blood-positive, 4: apparent bleeding): female BALB/c mice, 3 w/v % DSS
Experimental: (§1) Female BALB/c mice (Japan SLC) of 7 to 9 weeks old were allowed to freely drink 3 w/v % dextran sulfate sodium (DSS) for 5 to 7 days, and then to freely drink sterilized distilled water for 5 days. This procedure was repeated 3 times to induce colitis. The uninduced (background) group was allowed to freely drink sterilized distilled water. The compound described in Example 2 was orally administered to the mice at a dose of 30 mg/kg every day from Day 27 to Day 31 counted from the start of the test, and rectal bleeding was scored (0: occult blood-negative, 2: occult blood-positive, 4: apparent bleeding) by using the method described by Murthy et al (see, for example, Dig Dis Sci., 38, 1722 (1993)).
(§2) On the other hand, the same test as in Example 452 was repeated except that 1-(4-(pyridin-4-yloxy)benzyl)-3-(3-t-butylisoxazol-5-yl)urea (the structural formula thereof is shown below) which is a compound included in WO 04/037789 was used in place of the compound of Example 2. The score on Day 32 (the last day of the test) of the colitis-uninduced group was 0, while the score of the colitis-induced group rose to 1.2±0.2.
as §1, with “Example 10” for “Example 2”
as §2, with “Example 453” for “Example 452”, “that 1-(4-(pyridin-4-yloxy)benzyl)-3-([…])urea” for “that 1-(4-(pyridin-4-yloxy)benzyl)-3-(3-t-butylisoxazol-5-yl)urea”, “Example 10.” for “Example 2.”

[2] = system: TNFα production in human whole blood; assay: Inhibitory activity on LPS-induced TNFα production in human whole blood; type: cell-based; details: LPS stimulation, 37° C., 5 hours
Experimental: Inhibitory activities of the arylmethylene urea derivatives according to the present invention to the production of TNFα induced by stimulation with a lipopolysaccharide (LPS) were investigated using human whole blood.
After mixing each of the compounds of the present invention with human blood in a 96-well flat-bottom plate, the lipopolysaccharide (LPS) was added and the mixture was allowed to react at 37° C. for 5 hours. After the reaction, the resulting mixture was centrifuged at room temperature for 15 minutes, and supernatant of the resultant was recovered. For the quantification of TNFα in the supernatant, human cytokine kit (CIS biointernational) was used.

[3] = system: rhythmic bladder contractions; assay: Rhythmic bladder contractions model in anesthetized rats; type: in vivo, SD rats; details: i.v., 10 mg/kg; 10 minutes before and after administration; FIG. 2
Text: Using anesthetized rat rhythmic bladder contractions model, the inhibitory effect of the arylmethylene urea derivatives of the present invention on the detrusor hyperreflexia was investigated.
Female SD rats were anesthetized with an intraperitoneal injection of urethane (1.0 g/kg). A polyethylene tube was inserted from external urethral orifice into the bladder and the tube was fixed by ligating. The other end of the tube was equipped with a three-necked cock, and one of the necks thereof was connected to a pressure transducer for the measurement of intravesical pressure and the other neck was connected to a syringe for the infusion of physiological saline into the bladder. Thirty minutes after the surgery was completed, physiological saline in appropriate volume was infused via the tube in order to induce rhythmic bladder contractions. After stable rhythmic bladder contractions were obtained, a solution of each test compound or the solvent thereof was administered from a caudal vein in a volume of 0.5 mL/kg, and the effect on the frequency of bladder contractions was investigated. As the test compounds, the compounds of Examples 2 and 9 were used.
In each of the figures, the ordinate indicates the number of rhythmic bladder contractions for 10 minutes before and after administration of the compound.

Structure (SMILES) | pIC50 [2] | other results
CC(C)(C)c1cc(NC(=O)NCc2ccc(Oc3ccncc3)cc2)on1 [1-(4-(pyridin-4-yloxy)benzyl)-3-(3-t-butylisoxazol-5-yl)urea, reference compound] | – | amelioration of symptoms / improvement in the rectal bleeding score (in words) [1]: improvement in the score was not observed; rectal bleeding score on Day 32 (0: occult blood-negative, 2: occult blood-positive, 4: apparent bleeding) [1]: 1.1±0.2
COCCN1CCN(c2nccc(Oc3ccccc3CNC(=O)Nc3cc(C(C)(C)C)nn3-c3ccc(C)cc3)n2)CC1 [Example 12, 1-(2-(2-(4-(2-methoxyethyl)piperazin-1-yl)pyrimidin-4-yloxy)benzyl)-3-(3-t-butyl-1-p-tolyl-1H-pyrazol-5-yl)urea] | 6.57 | –
COc1cc(-n2nc(C(C)(C)C)cc2NC(=O)NCc2ccccc2Oc2ccnc(N3CCOCC3)n2)ccc1C [Example 56, 1-(2-(2-morpholinopyrimidin-4-yloxy)benzyl)-3-(3-t-butyl-1-(3-methoxy-4-methylphenyl)-1H-pyrazol-5-yl)urea] | 6.31 | –
Cc1ccc(-n2nc(C(C)(C)C)cc2NC(=O)NCc2ccccc2Oc2ccnc(N3CCC(C(N)=O)CC3)n2)cc1 [Example 14, 1-(4-(2-(((((3-t-butyl-1-p-tolyl-1H-pyrazol-5-yl)amino)carbonyl)amino)methyl)phenoxy)pyrimidin-2-yl)-piperidin-4-carboxylic amide] | 6.34 | –
Cc1ccc(-n2nc(C(C)(C)C)cc2NC(=O)NCc2ccccc2Oc2ccnc(N3CCCC(C(N)=O)C3)n2)cc1 (stereo not shown) [Example 13, 1-(4-(2-(((((3-t-butyl-1-p-tolyl-1H-pyrazol-5-yl)amino)carbonyl)amino)methyl)phenoxy)pyrimidin-2-yl)-piperidin-3-carboxylic amide] | 6.30 | –
Cc1ccc(-n2nc(C(C)(C)C)cc2NC(=O)NCc2ccccc2Oc2ccnc(NCCCN3CCCC3=O)n2)cc1 [Example 6, 1-(2-(2-(3-(2-oxo-pyrrolidin-1-yl)propylamino)pyrimidin-4-yloxy)benzyl)-3-(3-t-butyl-1-p-tolyl-1H-pyrazol-5-yl)urea] | 6.92 | –
Cc1ccc(-n2nc(C(C)(C)C)cc2NC(=O)NCc2ccccc2Oc2ccnc(NCCCN(C)C)n2)cc1 [Example 11, 1-(2-(2-(3-(dimethylamino)propylamino)pyrimidin-4-yloxy)benzyl)-3-(3-t-butyl-1-p-tolyl-1H-pyrazol-5-yl)urea] | 6.60 | –
Cc1ccc(-n2nc(C(C)(C)C)cc2NC(=O)NCc2ccccc2Oc2cc(C)nc(N3CCOCC3)n2)cc1 [Example 98, 1-(2-(6-methyl-2-morpholinopyrimidin-4-yloxy)benzyl)-3-(3-t-butyl-1-p-tolyl-1H-pyrazol-5-yl)urea] | 6.53 | –
Cc1ccc(-n2nc(C(C)(C)C)cc2NC(=O)NCc2cc(F)ccc2Oc2ccnc(N3CCOCC3)n2)cc1 [Example 9, 1-(2-(2-morpholinopyrimidin-4-yloxy)-5-fluorobenzyl)-3-(3-t-butyl-1-p-tolyl-1H-pyrazol-5-yl)urea] | 6.64 | effect on the number of rhythmic bladder contractions [3]: inhibited the rhythmic bladder contractions statistically significantly
Cc1ccc(-n2nc(C(C)(C)C)cc2NC(=O)NCc2ccccc2Oc2cc(N3CCCC(C(N)=O)C3)ncn2)cc1 (stereo not shown) [Example 82, 1-(6-(2-(3-(5-t-butyl-2-p-tolyl-2H-pyrazol-3-yl)-ureidomethyl)phenoxy)pyrimidin-4-yl)piperidin-3-carboxylic amide] | 6.45 | –
Cc1ccc(-n2nc(CC(C)(C)C)cc2NC(=O)NCc2ccccc2Oc2ccnc(N3CCOCC3)n2)cc1 [Example 28, 1-(2-(2-morpholinopyrimidin-4-yloxy)benzyl)-3-(3-neopentyl-1-p-tolyl-1H-pyrazol-5-yl)urea] | 6.29 | –
CC(C)(C)c1cc(NC(=O)NCc2ccc(Oc3ccncc3)cc2)no1 [reference compound] | – | amelioration of symptoms / improvement in the rectal bleeding score (in words) [1]: improvement in the score was not observed; rectal bleeding score on Day 32 (0: occult blood-negative, 2: occult blood-positive, 4: apparent bleeding) [1]: 1.3±0.3
Cc1ccc(-n2nc(C(C)(C)C)cc2NC(=O)NCc2ccccc2Oc2cc(N3CCOCC3)ncn2)cc1 [Example 5, 1-(2-(6-morpholinopyrimidin-4-yloxy)benzyl)-3-(3-t-butyl-1-p-tolyl-1H-pyrazol-5-yl)urea] | 6.07 | melting point: 128.5 °C
Cc1ccc(-n2nc(C(C)(C)C)cc2NC(=O)NCc2ccccc2Oc2ccnc(N3CCN(C)CC3)n2)cc1 [Example 7, 1-(2-(2-(4-methylpiperazin-1-yl)pyrimidin-4-yloxy)benzyl)-3-(3-t-butyl-1-p-tolyl-1H-pyrazol-5-yl)urea] | 6.53 | melting point: 149.5 °C
CC(=O)N1CCN(c2nccc(Oc3ccccc3CNC(=O)Nc3cc(C(C)(C)C)nn3-c3ccc(C)cc3)n2)CC1 [Example 10, 1-(2-(2-(4-acetylpiperazin-1-yl)pyrimidin-4-yloxy)benzyl)-3-(3-t-butyl-1-p-tolyl-1H-pyrazol-5-yl)urea] | 5.98 | amelioration of symptoms / improvement in the rectal bleeding score (in words) [1]: marked amelioration of symptoms was observed; rectal bleeding score on Day 32 (0: occult blood-negative, 2: occult blood-positive, 4: apparent bleeding) [1]: 0.6±0.3
Cc1ccc(-n2nc(C(C)(C)C)cc2NC(=O)NCc2ccccc2Oc2ccnc(NCCC3CCCN3C)n2)cc1 (stereo not shown) [Example 20, 1-(2-(2-(2-(1-methylpyrrolidin-2-yl)ethylamino)pyrimidin-4-yloxy)benzyl)-3-(3-t-butyl-1-p-tolyl-1H-pyrazol-5-yl)urea] | 6.46 | –
Cc1ccc(-n2nc(C(C)(C)C)cc2NC(=O)NCc2cc(F)cc(C)c2Oc2ccnc(Cl)n2)cc1 [Example 85, 1-(2-(2-chloropyrimidin-4-yloxy)-3-methyl-5-fluorobenzyl)-3-(3-t-butyl-1-p-tolyl-1H-pyrazol-5-yl)urea] | 6.37 | –
CCN(CC)CCCNc1nccc(Oc2ccccc2CNC(=O)Nc2cc(C(C)(C)C)nn2-c2ccc(C)cc2)n1 [Example 18, 1-(2-(2-(3-(diethylamino)propylamino)pyrimidin-4-yloxy)benzyl)-3-(3-t-butyl-1-p-tolyl-1H-pyrazol-5-yl)urea] | 6.51 | –
